Results: the NIST ThermoML archive (doi:10.1007/s10765-007-0223-x)

Test: xn = mol fraction of the nth substance listed
Settings: 101 kPa, Liquid; for speed of sound: Single path-length method

COC(C)(C)C [2-methoxy-2-methylpropane] + CC(C)CC(C)(C)C
Settings | mass density [kg/m3] | speed of sound [m/s]
305.65 K, x1 = 0.049 | 683.001 | –
305.65 K, x1 = 0.091 | 684.244 | –
305.65 K, x1 = 0.197 | 687.643 | –
305.65 K, x1 = 0.296 | 691.083 | –
305.65 K, x1 = 0.394 | 694.818 | –
305.65 K, x1 = 0.507 | 699.54 | –
305.65 K, x1 = 0.603 | 703.873 | –
305.65 K, x1 = 0.7 | 708.82 | –
305.65 K, x1 = 0.79 | 713.83 | –
305.65 K, x1 = 0.898 | 720.394 | –
305.65 K, x1 = 0.951 | 723.998 | –
305.65 K, x1 = 1 | 726.444 | –
308.15 K, x1 = 0.049 | 680.9 | 1037.7
308.15 K, x1 = 0.091 | 682.124 | 1035
308.15 K, x1 = 0.197 | 685.47 | 1029
308.15 K, x1 = 0.296 | 688.864 | 1022.8
308.15 K, x1 = 0.394 | 692.544 | 1017.6
308.15 K, x1 = 0.507 | 697.225 | 1011
308.15 K, x1 = 0.603 | 701.481 | 1006.8
308.15 K, x1 = 0.7 | 706.365 | 1002
308.15 K, x1 = 0.79 | 711.31 | 998.04
308.15 K, x1 = 0.898 | 717.802 | 993.91
308.15 K, x1 = 0.951 | 721.377 | 992.13
308.15 K, x1 = 1 | 723.763 | 991.34
310.65 K, x1 = 0.049 | 678.79 | 1027.3
310.65 K, x1 = 0.091 | 679.994 | 1024.6
310.65 K, x1 = 0.197 | 683.293 | 1018.5
310.65 K, x1 = 0.296 | 686.637 | 1012.2
310.65 K, x1 = 0.394 | 690.27 | 1006.9
310.65 K, x1 = 0.507 | 694.875 | 1000.2
310.65 K, x1 = 0.603 | 699.077 | 995.9
310.65 K, x1 = 0.7 | 703.915 | 991.12
310.65 K, x1 = 0.79 | 708.777 | 986.9
310.65 K, x1 = 0.898 | 715.208 | 982.76
310.65 K, x1 = 0.951 | 718.741 | 981.15
310.65 K, x1 = 1 | 721.069 | 980
313.15 K, x1 = 0.049 | 676.674 | 1017
313.15 K, x1 = 0.091 | 677.857 | 1014.4
313.15 K, x1 = 0.197 | 681.108 | 1008
313.15 K, x1 = 0.296 | 684.416 | 1001.9
313.15 K, x1 = 0.394 | 687.984 | 996.15
313.15 K, x1 = 0.507 | 692.513 | 989.48
313.15 K, x1 = 0.603 | 696.659 | 984.99
313.15 K, x1 = 0.7 | 701.432 | 980.08
313.15 K, x1 = 0.79 | 706.232 | 975.76
313.15 K, x1 = 0.898 | 712.585 | 971.49
313.15 K, x1 = 0.951 | 716.075 | 969.68
313.15 K, x1 = 1 | 718.357 | 968.63
315.65 K, x1 = 0.049 | 674.551 | 1006.8
315.65 K, x1 = 0.091 | 675.716 | 1004
315.65 K, x1 = 0.197 | 678.915 | 997.54
315.65 K, x1 = 0.296 | 682.172 | 991.38
315.65 K, x1 = 0.394 | 685.682 | 985.48
315.65 K, x1 = 0.507 | 690.141 | 978.73
315.65 K, x1 = 0.603 | 694.229 | 974.09
315.65 K, x1 = 0.7 | 698.938 | 969.06
315.65 K, x1 = 0.79 | 703.665 | 964.56
315.65 K, x1 = 0.898 | 709.948 | 960.23
315.65 K, x1 = 0.951 | 713.392 | 958.31
315.65 K, x1 = 1 | 715.636 | 957.31
318.15 K, x1 = 0.049 | 672.418 | 996.53
318.15 K, x1 = 0.091 | 673.564 | 993.65
318.15 K, x1 = 0.197 | 676.709 | 987.14
318.15 K, x1 = 0.296 | 679.911 | 980.84
318.15 K, x1 = 0.394 | 683.366 | 974.83
318.15 K, x1 = 0.507 | 687.763 | 968.07
318.15 K, x1 = 0.603 | 691.788 | 963.2
318.15 K, x1 = 0.7 | 696.427 | 958.04
318.15 K, x1 = 0.79 | 701.097 | 953.55
318.15 K, x1 = 0.898 | 707.292 | 949.03
318.15 K, x1 = 0.951 | 710.693 | 947.02
318.15 K, x1 = 1 | 712.897 | 946.03
320.65 K, x1 = 0.049 | 670.282 | 986.33
320.65 K, x1 = 0.091 | 671.436 | 983.34
320.65 K, x1 = 0.197 | 674.493 | 976.73
320.65 K, x1 = 0.296 | 677.642 | 970.3
320.65 K, x1 = 0.394 | 681.043 | 964.2
320.65 K, x1 = 0.507 | 685.37 | 957.34
320.65 K, x1 = 0.603 | 689.334 | 952.36
320.65 K, x1 = 0.7 | 693.905 | 947.08
320.65 K, x1 = 0.79 | 698.504 | 942.46
320.65 K, x1 = 0.898 | 704.622 | 937.81
320.65 K, x1 = 0.951 | 707.978 | 935.72
320.65 K, x1 = 1 | 710.141 | 934.76
323.15 K, x1 = 0.049 | 668.138 | 976.18
323.15 K, x1 = 0.091 | 669.267 | 973.04
323.15 K, x1 = 0.197 | 672.267 | 966.34
323.15 K, x1 = 0.296 | 675.361 | 959.8
323.15 K, x1 = 0.394 | 678.707 | 953.63
323.15 K, x1 = 0.507 | 682.969 | 946.69
323.15 K, x1 = 0.603 | 686.867 | 941.57
323.15 K, x1 = 0.7 | 691.375 | 936.24
323.15 K, x1 = 0.79 | 695.909 | 931.51
323.15 K, x1 = 0.898 | 701.938 | 926.65
323.15 K, x1 = 0.951 | 705.25 | 924.5
323.15 K, x1 = 1 | 707.381 | 923.46
